This assay concerns the target calcium-dependent protein kinase 1 (CDPK1, CDPK1^G; TGGT1_301440) (Toxoplasma gondii, UniProt Q9BJF5). Description: kinase assay with recombinant purified enzyme in excess calcium. Format: biochemical.

The results in this text go back to article PMC7585386 (ACS chemical biology, 2020).

Molecules are shown by their SMILES.

As usually defined, the IC50 is the concentration needed to halve the response being measured. Turning to `Cc1cccc(Cc2nn(C(C)(C)C)c3ncnc(N)c23)c1` [3-MB, 3-MB-PP1], the concentration for half-maximal inhibition (IC50) worked out at 79 nM.
